Measurements as given in publication PMC2424174, “Suppression of Tumor Growth and Angiogenesis by a Specific Antagonist of the Cell-Surface Expressed Nucleolin” (PLoS ONE, 2008).

Key:
PC3 cells = experiment: Colony formation in soft agar, PC3; assay type: cell-based, human; conditions: 5 µM HB-19, PC3
Procedure: (§1) Figure 4 HB-19 inhibits colony formation in soft agar by tumor cell lines. (A) MDA-MB-231 cells in culture medium were seeded in triplicate in the absence (histogram C) or presence of 0.1, 0.5 and 1 of µM HB-19, or 0.1 µM of the anti-nucleolin mAb MS-3 or control IgG, or 10 µM bisphosphonate (BisP). (B) Various tumor cell lines (as indicated) in culture medium were seeded in triplicate in the absence (histogram Control) or presence of 5 µM HB-19. After 10–21 days, colonies with diameters greater than 50 µm were scored as positive. Statistical significance: *0.01<p<[…], **p<0.01, ***p<0.001.
(§2) Carcinoma cells (2×10^4) were mixed in 0.35% top agar, diluted in complete medium (DMEM containing 10% FBS) in the absence or presence of HB-19, and plated onto 0.8% bottom agar into 12-well plates. Cells were treated twice a week during 10 to 21 days. Colonies with diameters greater than 50 µm were scored as positive using a phase contrast microscope equipped with a measuring grid at magnification 100× [45]. The number of colonies was determined by analyzing 5 fields/well from 3 wells and the test was repeated at least twice.

U87MG cells = experiment: Colony formation in soft agar, U87MG; assay type: cell-based, human; conditions: 5 µM HB-19, U87MG
Procedure: as §1, §2

HUVECs = experiment: Proliferation of VEGF stimulated HUVECs; assay type: cell-based, human; conditions: 0.25 nM VEGF165; 1 µM HB-19 or 0.1 µM mAb MS-3; 72 h; mean of triplicate
Procedure: Figure 6 Inhibition of in vitro and in vivo angiogenesis by HB-19. (A) HB-19 inhibits proliferation of HUVECs. Twenty-four hours after seeding HUVECs in 2% FBS, cells were stimulated by 0.25 nM VEGF165, in the absence or presence of 1 µM HB-19 or 0.1 µM anti-nucleolin mAb MS-3 as indicated. After 72 h, cell number was determined by crystal violet staining. The data are reported as the mean of triplicate samples. (B) HB-19 inhibits migration of HUVECs. Cell migration was studied using a modified Boyden chamber. Cells were incubated (4 h at 37°C) with VEGF165, HB-19, or anti-nucleolin mAb MS-3 as above. Cells that migrated through the pore to the lower filter surface were counted and are shown as number per microscopic field at ×100 magnification. The data are the mean of three independent high-power fields/well performed in duplicate in two independent experiments. […] Aortic endothelial (ABAE) cells in the absence or presence of 3 nM PTN, 0.5 nM VEGF165, and 3 nM FGF-2 were seeded on a three-dimensional collagen gel in complete medium. […] Tubular network structures were quantified using phase contrast microscopy (×100). […] Quantification of endothelial cell invasion into the Matrigel was determined and is expressed as a mean of five fields per section from 3 Matrigel-plug sections per mouse. The results are expressed as the mean of five mice per group. […]

[1] = system: MDA-MB-231 tumor-cell xenografts; experiment: MDA-MB-231 xenograft in nude mice; assay type: in vivo, human
Procedure: Figure 8 HB-19 inhibits tumor growth in the nude mice. (A) HB-19 inhibits the growth of MDA-MB-231 tumor-cell xenografts. Cells (2×10^6) were injected subcutaneously into the right flank of female nude mice. Two weeks later, mice with a palpable tumor of approximately 40 mm^3 in volume were randomly separated into three groups (n = 5) and were given peritumoral injections 3 times/week of 0.1 ml PBS alone (Control), HB-19 (5 mg/kg), or Tamoxifen (Tmx) 10 mg/kg) for 6 weeks. (B) HB-19 inhibits the growth of MDA-MB-435 tumor-cell xenografts. Cells (1×10^6) were injected in the mammary fat pad of female nude mice. Two weeks later, mice with a palpable tumor were randomly separated into three groups (n = 10) and were given intraperitoneal injections 3 times/week of 0.1 ml PBS alone (Control), HB-19 (5 mg/kg), or 5-fluouracil (5-FU, 40 mg/kg) for 8 weeks. At the end of each experiment (in A and B), mice were sacrificed and the tumors were excised and weighed. The results are presented as the mean weight ±standard deviation (±S.D.) obtained from the number of mice in each group. (C, D) Inhibition of tumor development in mice treated by intraperitoneal (i.p.) and subcutaneous (s.c.) administration of HB-19. MDA-MB-231 tumor bearing mice in three groups (n = 10) were treated with HB-19 (10 mg/kg) by i.p. or s.c. injections, 3 times/week for 28 days. […] Statistical significance: *p<0.05, **p<0.01, ***p<0.001.

[2] = system: CD31 endothelial marker in tumors; experiment: Tumor vascularization, CD31 immunohistochemistry; assay type: in vivo, mouse; conditions: CD31 staining; HB-19 5 mg/kg or 5-FU 40 mg/kg, intraperitoneal, 8 weeks; compared to untreated tumors
Procedure: Figure 9 Reduced density of blood vessels in HB-19 treated tumor-bearing mice. Sections of tumors recovered from mice, untreated control and treated with either HB-19 or 5-FU (experiment described in Figure 8B) were stained with antibodies against the CD31 endothelial marker and analyzed by fluorescence microscopy. […] Angiogenesis was quantified by image analysis of CD31-labeled endothelial cells.
Immediately after surgical resection, tumors, were frozen in liquid nitrogen and fixed for 20 min in acetone at 4°C or fixed with 4% PFA for paraffin inclusion. The sections of 8 µm were re-hydrated and saturated in PBS containing 1% BSA and 2% normal goat serum. To visualize tumor endothelial cells, sections were incubated with a Rat anti-mouse CD31 monoclonal antibody (1∶50) in saturation buffer 1 hour at room temperature. After two washes in PBS, sections were incubated for 1 hour at room temperature with biotinylated goat anti-Rat IgG (1∶1000 dilution; Chemicon International Inc., Temecula, CA) in saturation buffer, followed by three washes in PBS and incubation with the avidin-biotinylated-alkaline phosphatase complex (Vector Laboratories). […] Angiogenesis was quantified by Image analysis of CD31-labeled endothelial cells. The EC density in each field was expressed as the ratio of EC area/total area examined ×100 (%). […]

[3] = HB-19 10 mg/kg, intraperitoneal, 3 times/week, 28 days, n = 10

Substance: pseudo-tripeptide Lysψ(CH2N)-Pro-Arg coupled to a template (H2NLys-Lys-Lys-Gly-Pro-Lys-Glu-Lys-AhxCONH2) [HB-19, pseudopeptide presenting pentavalently the pseudo-tripeptide Lysψ(CH2N)-Pro-Arg coupled to a template]
- colony formation (PC3 cells): reduced markedly
- colony formation (U87MG cells): reduced markedly
- inhibition of HUVEC proliferation (HUVECs): inhibited dramatically both of these events down to levels comparable to that of unstimulated cells
- antitumoral activity compared with tamoxifen ([1]; HB-19 5 mg/kg vs tamoxifen 10 mg/kg, peritumoral): superior to the conventional cancer drug tamoxifen
- tumor elimination ([1]; HB-19 5 mg/kg, peritumoral, 3 times/week, 6 weeks): in some cases eliminated measurable tumors
- inhibition of tumor growth ([1]; HB-19 5 mg/kg, peritumoral, 3 times/week, 6 weeks, n = 5): > 95%
- complete eradication of the tumor [1, 3]: Complete eradication of the tumor was observed in several mice
- inhibition in tumor volume [1, 3]: more than 95%
- inhibition in tumor volume ([1]; HB-19 10 mg/kg, subcutaneous, 3 times/week, 28 days, n = 10): more than 95%
- inhibition of tumor vascularization [2]: significantly inhibited tumor vascularization
